Literature values, collected in patent publication US20150050250A1, “CELL THERAPY TECHNOLOGY TO DELIVER RADIO-PROTECTIVE PEPTIDES” (UNIVERSITY OF SOUTHERN CALIFORNIA, priority 2012, published 2015).

How the values were obtained:
[1] = test system: fibroblasts; details: BBI peptide at 20 μM added directly to the tissue culture medium
[2] = test system: normal tissue

Molecule: CALSYPAQCFC (portion of Soybean Bowman Birk protease inhibitor) [BBI peptide]
- protection of fibroblasts from ionizing radiation [1]: protected fibroblasts from ionizing radiation

B1: Bowman Birk protease inhibitor (protein)
chain: DDESSKPCCDQCACTKSNPPQCRCSDMRLNSCHSACKSCICALSYPAQCFCVDITDFCYEPCKPSEDDKEN
modifications: Soybean
- radioprotection of normal tissue in vivo [2]: selective radioprotection to normal tissue in vivo
